# Test results published in patent US20110033946A1, “DETECTION OF SHORT-CHAIN FATTY ACIDS IN BIOLOGICAL SAMPLES” (HEMAQUEST PHARMACEUTICALS, INC., priority 2009, published 2011).
# Assay: Stock solution stability at approximately 4° C. (old vs new stock peak areas)
# Type: physicochemical
# Details: for Stock solution stability, RE % (to New) of old stock peak area: approximately 4° C.
# Protocol: The following LC-MS/MS conditions were applied for the analysis of underivatized sodium 2,2-dimethylbutyrate and DMV for stock solution stability analysis (2 to 3.5 month), and system suitability associated with these analyses: The following samples were also analyzed either in conjunction with one of the precision and accuracy runs or in one of the additional validation runs. Samples from six lots of control human plasma for specificity. Samples from six lots of control human plasma fortified with internal standard for specificity. Two concentration levels of unextracted QC-samples in triplicate (solvent standards) were analyzed for the evaluation of the recovery of sodium 2,2-dimethylbutyrate and DMV in human plasma. Two levels of QC samples (Low QC and High QC in triplicate) were subjected to three freeze/thaw cycles at approximately −70° C. prior to extraction to evaluate freeze/thaw stability. Two levels of QC samples (Low QC and High QC in triplicate) were placed on the bench top for approximately 17 hours prior to extraction for the evaluation of the bench top stability. Triplicate low QC samples and triplicate high QC samples were stored for one month and three months in a freezer at approximately −70° C., and then extracted and analyzed to evaluate long term stability in human plasma. Two levels of extracted QC samples (Low QC and High QC) were re-analyzed after approximately 71 hours in the autosampler at room temperature to evaluate the extract autosampler stability. Two levels of extracted QC samples (Low QC and High QC) were re-analyzed after approximately 8 hours in the freezer at approximately −20° C. to evaluate the extract freeze stability. Three aliquots of a dilution QC sample diluted 10-fold. Triplicate dilutions of the old stock solution (stored at approximately 4° C.) and new stock solutions prepared at intervals of two weeks and one month. Statistical calculations in the report tables were calculated from unrounded concentration values taken directly from the raw data. The concentration values were rounded for display purposes. Fresh stock solutions of sodium 2,2-dimethylbutyrate were prepared at intervals of two weeks and 1, 2, 3 and 3.5 months after the initial standard preparation. Similarly, the stability intervals for DMV were two weeks and 1, 2 and 3 months. The initial (or old) stock solutions and the fresh stock solutions were diluted into the calibration standard range and analyzed. The peak areas for the fresh (new) and old standard solutions were compared. Beginning with the 2-month stability analysis, sodium 2,2-dimethylbutyrate and DMV stock solutions were analyzed underivatized. This was done since the peak areas of both sodium 2,2-dimethylbutyrate and DMV varied among replicate derivatized preparations. Analyzing the standard solutions underivatized was a simpler procedure which gave more accurate and precise results
smiles,measurement,setting,value
"CCCC(C)(C)C(=O)O [DMV, 2,2-Dimethylvaleric acid, reference compound]","Stock solution stability, RE % (to New) of old stock peak area",1 Month Interval,23.9%
same,"Stock solution stability, RE % (to New) of old stock peak area","2 Month Interval, underivatized",14.3%
same,"Stock solution stability, RE % (to New) of old stock peak area",2 Week Interval,16.7%
same,"Stock solution stability, RE % (to New) of old stock peak area","3 Month Interval, underivatized",17.8%
same,"Stock solution stability, RE % (to New) of old stock peak area","~2 Month Interval, repeated with the 1 month stock solution as old, underivatized",−7.2%
same,Time stock solutions are stable,stock solution in acetonitrile/water stored in a refrigerator at approximately 4° C.,at least 2 months
